Data reported in patent US20140116434A1, “Dry Powder Inhaler Compositions” (GLAXO GROUP LIMITED, priority 2011, published 2014).

Columns and labels:
[1] = test system: muscarinic receptor; test: muscarinic receptor antagonism, studies in animal models and in humans
[2] = molecular target: human M3 receptor (Homo sapiens, UniProt P20309); test: reversibility at the human M3 receptor in vitro; format: binding
[3] = test system: pre-clinical models; test: duration of action in vivo, administered directly to the lungs in pre-clinical models; parameters: species or system animals
[4] = test system: healthy volunteers and COPD patients; test: clinical pharmacology studies, single inhaled doses, plethysmography (sGaw, Raw) and spirometry (FEV1); format: in vivo, human
Description: Several clinical pharmacology studies have been conducted using 4-[hydroxy(diphenyl)methyl]-1-{2-[(phenylmethyl)oxy]ethyl}-1-azoniabicyclo[2.2.2]octane bromide in both healthy volunteers and COPD patients to investigate the safety, tolerability, pharmacokinetics and pharmacodynamics of this compound. The bronchodilatory effects and duration of action of single inhaled doses of this compound as measured by plethysmography (sGaw, Raw) and spirometry (FEV1) were assessed in some of the above noted studies.

[5] = test system: subjects with COPD; test: 14-day once-daily study in subjects with COPD; format: in vivo, human; conditions: 14-day treatment period
Source text: In addition, this study confirmed that 4-[hydroxy(diphenyl)methyl]-1-{2-[(phenylmethyl)oxy]ethyl}-1-azoniabicyclo[2.2.2]octane bromide has a once-daily profile.

[6] = test system: subjects with COPD; test: 28 day once-daily dry powder inhaler study in subjects with COPD; format: in vivo, human; conditions: 125, 250 and 500 mcg once-daily, 28 day period
Source text: A further study evaluated the efficacy and safety of three doses (125 mcg, 250 mcg and 500 mcg) of 4-[hydroxy(diphenyl)methyl]-1-{2-[(phenylmethyl)oxy]ethyl}-1-azoniabicyclo[2.2.2]octane bromide administered once-daily via a dry powder inhaler over a 28 day period in subjects with COPD.

[7] = test system: healthy Japanese volunteers; test: single inhaled dose four-way crossover study, monotherapies and combination; format: in vivo, human; conditions: single inhaled doses, 500 mcg and/or 50 mcg
Source text: A combination of 4-[hydroxy(diphenyl)methyl]-1-{2-[(phenylmethyl)oxy]ethyl}-1-azoniabicyclo[2.2.2]octane bromide and the compound of formula (II) as the triphenylacetate salt has been administered to sixteen healthy Japanese volunteers, aged 20 to 65, as part of a clinical trial to assess the safety, tolerability, pharmacokinetics and pharmacodynamics of single inhaled doses of 4-[hydroxy(diphenyl)methyl]-1-{2-[(phenylmethyl)oxy]ethyl}-1-azoniabicyclo[2.2.2]octane bromide and the compound of formula (II) triphenylacetate as monotherapies and in combination. […]
This clinical study in healthy Japanese volunteers, evaluated the effect of 4-[hydroxy(diphenyl)methyl]-1-{2-[(phenylmethyl)oxy]ethyl}-1-azoniabicyclo[2.2.2]octane bromide (500 mcg dose) and the compound of formula (II) triphenylacetate (50 mcg dose) administered as single inhaled doses and concurrently (4-[hydroxy(diphenyl)methyl]-1-{2-[(phenylmethyl)oxy]ethyl}-1-azoniabicyclo[2.2.2]octane bromide (500 mcg dose) and the compound of formula (II) triphenylacetate (50 mcg dose)) on lung function parameters. […] In this study FEV1 values were recorded. […]

[8] = format: in vivo, animal and human
[9] = test system: asthmatic patients; test: clinical pharmacology studies of the compound of formula (II) in asthmatic patients; format: in vivo, human; conditions: all doses tested
Source text: The compound of formula (II) as the α-phenylcinnamate salt and the triphenylacetate salt has been studied in a number of clinical pharmacology studies, including single- and repeat-dose studies. In addition, these studies have evaluated the compound of formula (II) formulated with lactose and either cellobiose octaacetate or magnesium stearate.

[10] = test system: subjects with persistent uncontrolled asthma; test: 8 week randomised, double-blind, placebo-controlled study in persistent uncontrolled asthma; format: in vivo, human
Description: In one such study, the safety and efficacy of four doses of 6α,9α-difluoro-17α-[(2-furanylcarbonyl)oxy]-11β-hydroxy-16α-methyl-3-oxo-androsta-1,4-diene-17β-carbothioic acid S-fluoromethyl ester (fluticasone furoate) in subjects with persistent uncontrolled asthma were evaluated. In this study, which was a randomised, double-blind, placebo-controlled, parallel group study, 598 patients received one of six treatments: fluticasone furoate (25, 50, 100 or 200 mcg) once daily, fluticasone propionate 100 mcg twice daily or placebo for 8 weeks. The primary endpoint was change from baseline in trough (pre-dose) forced expiratory volume in 1 second (FEV1) at Week 8. […] This study supports the use of fluticasone furoate (100 or 200 mcg once-daily) for the treatment of persistant uncontrolled asthma.

Sequence of human M3 receptor (P20309 whole entry): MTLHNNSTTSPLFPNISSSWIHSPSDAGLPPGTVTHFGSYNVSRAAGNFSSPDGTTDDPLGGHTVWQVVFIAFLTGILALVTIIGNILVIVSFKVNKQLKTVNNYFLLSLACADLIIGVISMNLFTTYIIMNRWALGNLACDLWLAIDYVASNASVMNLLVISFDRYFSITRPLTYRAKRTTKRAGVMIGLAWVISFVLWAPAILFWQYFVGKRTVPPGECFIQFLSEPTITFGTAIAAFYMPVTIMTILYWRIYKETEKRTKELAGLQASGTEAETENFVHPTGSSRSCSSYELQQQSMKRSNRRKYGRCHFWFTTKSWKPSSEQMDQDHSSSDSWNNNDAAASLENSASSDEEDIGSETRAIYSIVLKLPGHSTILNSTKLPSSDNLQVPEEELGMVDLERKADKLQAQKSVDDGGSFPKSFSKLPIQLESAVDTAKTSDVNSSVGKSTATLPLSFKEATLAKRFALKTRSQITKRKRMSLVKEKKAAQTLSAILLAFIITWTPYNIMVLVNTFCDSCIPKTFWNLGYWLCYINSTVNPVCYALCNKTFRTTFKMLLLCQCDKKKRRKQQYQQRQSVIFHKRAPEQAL

OC(c1ccccc1)(c1ccccc1)C12CC[N+](CCOCc3ccccc3)(CC1)CC2.[Br-] [4-[hydroxy(diphenyl)methyl]-1-{2-[(phenylmethyl)oxy]ethyl}-1-azoniabicyclo[2.2.2]octane bromide]
muscarinic receptor antagonist profile [1]: long acting high-affinity pan-active muscarinic receptor antagonist
reversibility at the human M3 receptor [2]: slow reversibility
duration of action in vivo [3]: long duration of action
bronchodilatory effects (sGaw, Raw, FEV1) [4]: clinically relevant bronchodilation
duration of action [4]: 24 h
pulmonary function compared to placebo ([5]; 62.5, 125, 250, 500 and 1000 mcg once-daily): statistically significant improvements
trough FEV1 compared with open label tiotropium active control (18 mcg once-daily) ([5]; all once-daily doses): numerically greater improvement
bronchodilation [6]: significant bronchodilation over twenty four hours
safety [6]: safe
tolerability ([7]; dry powder inhalers): well tolerated
FEV1 values compared with placebo [7]: higher

OCc1cc([C@@H](O)CNCCCCCCOCCOCc2c(Cl)cccc2Cl)ccc1O [compound of formula (II), 4-{(1R)-2-[(6-{2-[(2,6-dichlorobenzyl)oxy]ethoxy}hexyl)amino]-1-hydroxyethyl}-2-(hydroxymethyl)phenol]
bronchodilation ([8]; animal and human studies): sustained bronchodilation over a 24 hour period
safety profile ([8]; in vivo): favourable safety profile
trough (24-hour) FEV1 compared to placebo [9]: statistically and clinically significant improvement

C[C@@H]1C[C@H]2[C@@H]3C[C@H](F)C4=CC(=O)C=C[C@]4(C)[C@@]3(F)[C@@H](O)C[C@]2(C)[C@@]1(OC(=O)c1ccco1)C(=O)SCF [fluticasone furoate, 6α,9α-difluoro-17α-[(2-furanylcarbonyl)oxy]-11β-hydroxy-16α-methyl-3-oxo-androsta-1,4-diene-17β-carbothioic acid S-fluoromethyl ester]
change from baseline in trough FEV1 relative to placebo ([10]; 50-200 mcg once daily, Week 8, p<0.05): significantly greater increases
increase in trough FEV1 from baseline relative to placebo ([10]; 100 mcg and 200 mcg once daily, Week 8): > 200 mL
